Experimental findings from ChEMBL document CHEMBL5608172, “Structural modification strategies of triazoles in anticancer drug development” (Eur J Med Chem, 2024) are described below.

The subject of series [1] is HepG2. In words: Antiproliferative activity against human HepG2 cells assessed as inhibition of cell growth measured after 72 hrs by MTT assay. The format is functional, cell-based. Particulars: HepG2, 72 h. (In general: Tetrazolium dyes change colour on reduction, which living cells bring about.)
The test system of the next series is SGC-7901. In words: Antiproliferative activity against human SGC-7901 cells. In kind it is functional, cell-based.
The test system of series [2] is MCF7. Nature of the series: Antiproliferative activity against human MCF7 cells assessed as reduction in cell viability. In kind it is functional, cell-based.
For a further series, the system named is MDA-MB-231. Nature of the series: Antiproliferative activity against human MDA-MB-231 cells assessed as reduction in cell viability. The format is functional, cell-based.
For a further series, the system named is Detroit 562. In words: Antiproliferative activity against human Detroit 562 cells. The format is functional, cell-based.
The subject of series [3] is MCF7. Nature of the series: Antiproliferative activity against human MCF7 cells assessed as reduction in cell growth incubated for 24 hrs by MTT assay. The format is functional, cell-based. Particulars: MCF7, 24 h.
The subject of another series is NCI-H1650. Nature of the series: Antiproliferative activity against human NCI-H1650 cells assessed as reduction in cell growth incubated for 72 hrs by cell-titer glo assay. In kind it is functional, cell-based. The settings on record: NCI-H1650, 72 h.
For a further series, the system named is NCI-H1975. Nature of the series: Antiproliferative activity against human NCI-H1975 cells assessed as reduction in cell growth incubated for 72 hrs by cell-titer glo assay. In kind it is functional, cell-based. The settings on record: NCI-H1975, 72 h.
In series [4] the test system is HCT-116. In words: Anticancer activity against human HCT-116 cells assessed as reduction in cell viability incubated for 48 hrs by MTT assay. The format is functional, cell-based. The settings on record: HCT-116, 48 h.
For series [5], the system named is MCF7. In words: Anticancer activity against human MCF7 cells assessed as reduction in cell viability incubated for 48 hrs by MTT assay. The settings on record: MCF7, 48 h. In kind it is functional, cell-based.
Another series has as its system SCC-25. In words: Antiproliferative activity against human SCC-25 cells. The format is functional, cell-based.
Another series has as its system Fibroblast. In words: Antiproliferative activity against human Fibroblast cells. The format is functional, cell-based.
For series [6], the system named is HepG2. Nature of the series: Anticancer activity against human HepG2 cells. The format is functional, cell-based.
For series [7], the system named is A549. Nature of the series: Antiproliferative activity against human A549 cells assessed as reduction in cell growth incubated for 72 hrs by MTT assay. The format is functional, cell-based. Particulars: A549, 72 h.
Series [8] relates to A549. Nature of the series: Antiproliferative activity against human A549 cells assessed as reduction in cell viability incubated for 48 hrs by MTT assay. In kind it is toxicity, cell-based. The settings on record: A549, 48 h.
Series [9] can be described thus: Antiproliferative activity against human WS1 cells assessed as reduction in cell viability incubated for 48 hrs by MTT assay. In kind it is toxicity, cell-based.
The test system of series [10] is MCF7. In words: Cytotoxicity against human MCF7 cells assessed as cell growth inhibition incubated for 72 hrs by SRB assay. Particulars: MCF7, 72 h. The format is functional, cell-based. In general terms: In SRB staining, fixed cells bind dye roughly in proportion to their protein.
Series [11] has as its system MCF7. In words: Cytotoxicity against human MCF7 cells assessed as reduction in cell growth incubated for 72 hrs by MTT assay. The format is functional, cell-based. The settings on record: MCF7, 72 h.
A short description of series [12]: Cytotoxicity against hTERT Lung Fibroblast cells assessed as reduction in cell growth incubated for 72 hrs by MTT assay. In kind it is toxicity, cell-based. The settings on record: human.
For a further series, the system named is U-937. Nature of the series: Antiproliferative activity against human U-937 cells. The format is functional, cell-based.
A further series concerns HL-60. In words: Antiproliferative activity against human HL-60 cells. In kind it is functional, cell-based.
Series [13] relates to MCF7. Nature of the series: Anticancer activity against human MCF7 cells. The format is functional, cell-based.
Another series deals with CCRF-CEM. In words: Antiproliferative activity against human CCRF-CEM cells. The format is functional, cell-based.
In series [14] the test system is HCT-116. In words: Antiproliferative activity against human HCT-116 cells assessed as inhibition of cell growth measured after 72 hrs by MTT assay. In kind it is functional, cell-based. Particulars: HCT-116, 72 h.
The subject of a further series is AGS. Nature of the series: Anticancer activity against human AGS cells. The format is functional, cell-based.

In general, IC50 refers to the concentration that inhibits the measured activity by half. Turning to `Cc1ccc(/N=N/c2sc(N/N=C/c3cn(-c4ccccc4)nc3-c3nnn(-c4ccc(Br)cc4)c3C)nc2C)cc1`, the IC50 with HepG2 [1] came out at 2.3 µM.

In turn, `CC1(C)CC[C@]23CC[C@]4(C)[C@H](CC[C@@H]5[C@@]6(C)Cc7nnn(CCCCC[P+](c8ccccc8)(c8ccccc8)c8ccccc8)c7C(C)(C)[C@@H]6CC[C@]54C)[C@H]2[C@H]1OC3` yielded an IC50 in the series with SGC-7901 of 1.05 µM.

Regarding `CC(C)[C@@H]1CC[C@@H](C)C[C@@H]1On1cc(CN2C(=O)C(=O)c3ccccc32)nn1`, the IC50 in the series on MCF7 [2] was 1.34 µM; with MDA-MB-231, 1.79 µM.

Regarding `COCCOc1cc2ncnc(Nc3cccc(-c4cn(-c5ccccc5/C=C/C(=O)c5cc(OC)c(OC)c(OC)c5)nn4)c3)c2cc1OCCOC`, the IC50 in the series with Detroit 562 is 0.673 µM.

Consider `COC(=O)c1ccccc1-n1ncc(CSc2nnc(-c3ccccc3)o2)n1`, for which the IC50 with MCF7 [3] was determined as 1.26 µM.

In the case of `C#Cc1cccc(Nc2ncnc3cc(OCCOC)c(OCCOC)cc23)c1` [ERLOTINIB], the half-maximal inhibitory concentration (IC50) was 40 µM with NCI-H1650 and 37 µM with NCI-H1975.

Consider `CN(C)c1ccc(/C=N/c2nnc(S[C@@H]3O[C@H](CO)[C@H](O)[C@H](O)[C@H]3O)s2)cc1`, for which the IC50 came to 14.4 µM with HCT-116 [4] and 21.7 µM in the series with MCF7 [5].

In the case of `CC(C)CCC1=C(OCc2cn(-c3cccc(Cl)c3)nn2)C(=O)c2ccccc2C1=O`, the IC50 was 9.81 µM with SCC-25 and 210 µM in the series on Fibroblast.

In the series with HepG2 [6], `Nn1c(Sc2c(O)c3ccccc3oc2=O)nnc1-c1ccc(Cl)cc1` showed an IC50 of 1.78 µM.

On to `COc1ccc2c(-n3cc(-c4cc(OC)c(OC)c(OC)c4)nn3)c(C(=O)Nc3ccccc3)oc2c1`, for which the IC50 with A549 [7] is 0.57 µM.

As to `Cc1ccc(NC(=O)c2ccc(CN3CCN(C)CC3)cc2)cc1Nc1nccc(-c2cccnc2)n1` [IMATINIB], the IC50 in the series on A549 [8] is 65 µM. The 50% inhibitory concentration (IC50) at 48 h in series [9] turned out to be 9.6 µM.

With `O=C(O)c1ccc(C(=O)NCn2cc(CSc3nc(-c4ccccc4)c(-c4ccccc4)n3-c3ccccc3)nn2)cc1`, in the series with MCF7 [10], the IC50 worked out at 0.38 µM.

With `CC(=O)O[C@H]1CC[C@]2(C)[C@H]3CC=C4[C@@H]5[C@@H](C)[C@H](C)CC[C@]5(C(=O)OCc5cn(Cc6nonc6C)nn5)CC[C@@]4(C)[C@]3(C)CC[C@H]2C1(C)C`, the IC50 in the series on MCF7 [11] amounted to 1.55 µM. The IC50 at 72 h in [12] was 10.4 µM.

On to `Nc1ccc(-c2nnc(Sc3nc4ccccc4n4c(Nc5ccccc5)nnc34)o2)cc1`, for which the IC50 came to 2.65 µM in the series with U-937 and 2.72 µM in the series with HL-60.

As to `CNc1nc2ccccc2n2c(CCc3ccccc3)cnc12`, the IC50 with U-937 is 0.82 µM; with HL-60, 2.07 µM.

For `C[C@H]1[C@H](C)CC[C@]2(C(=O)O)CC[C@]3(C)C(=CC[C@@H]4[C@@]5(C)CC[C@H](O)C(C)(C)[C@@H]5CC[C@]43C)[C@H]12` [URSOLIC ACID], the half-maximal inhibitory concentration (IC50) with MCF7 [11] was 25.1 µM. Besides, the half-inhibitory concentration (IC50) at 72 h in [12] was determined as 90.9 µM.

Consider `Cc1cc(=O)oc2cc(-n3cc(-c4cccc(-c5cn(-c6ccc7c(C)cc(=O)oc7c6)nn5)c4)nn3)ccc12`, for which, in the series with MCF7 [13], inhibition was half-maximal at 0.3 µM (IC50).

Consider `COc1cc(/C=C/C(=O)/C(Cc2cnnn2Cc2ccc(F)cc2)=C(O)/C=C/c2ccc(O)c(OC)c2)ccc1O`, for which the IC50 in the series on CCRF-CEM turned out to be 3.31 µM.

`COc1cc(C(=O)/C=C/c2ccccc2)cc(OC)c1OC` yielded a half-inhibitory concentration (IC50) with Detroit 562 of 3.07 µM.

As for `CCc1nnc2c(-c3ccccc3)cc3c(Br)c(OC)c(OC)cc3n12`, the IC50 in the series on HCT-116 [14] turned out to be 0.5 µM.

Compound `O=c1cc(-c2ccccc2)c2ccc(OCc3nncn3-c3ccc(Cl)cc3)cc2o1` yielded an IC50 in the series with AGS of 2.63 µM.
